Consider six compounds from patent publication US20140228303A1, “NOVEL SGLT INHIBITORS” (Panacea Biotec Ltd, priority 2011, published 2014).

One assay deals with C57BL/6J mice. Briefly: Estimation of urinary glucose in C57BL/6J mice. The assay is classed as in vivo, mouse. To be noted: urine collected over 24 h. Here is the method:
Estimation of Urinary Glucose in C57BL/6J Mice
C57BL/6J mice were fasted 4 h before drug treatment. Fasted mice were weighed and randomized into different groups based on their body weight (n=6). At time T0 test compounds and standard compounds suspended in 0.25% CMC or PEG 400 formulation, were administered to respective groups and kept in metabolic cages (6 mice/cage) after dosing. Animals were fed after drug administration and urine was collected over a period of 24 h. Urinary volume was measured and urinary glucose was estimated using Merckotest Glucose Reagent (Merck Specialities Pvt. Ltd., India).

The target in another assay is T1, mouse SGLT-2 (Mus musculus, UniProt Q923I7).
T1 construct: Full-length mouse SGLT-2 cDNA was amplified from C57BL/6J mouse kidneys and introduced in the pcDNA3.1(+) expression vector; expressed in transfected cells
T1 sequence (Q923I7 1-670): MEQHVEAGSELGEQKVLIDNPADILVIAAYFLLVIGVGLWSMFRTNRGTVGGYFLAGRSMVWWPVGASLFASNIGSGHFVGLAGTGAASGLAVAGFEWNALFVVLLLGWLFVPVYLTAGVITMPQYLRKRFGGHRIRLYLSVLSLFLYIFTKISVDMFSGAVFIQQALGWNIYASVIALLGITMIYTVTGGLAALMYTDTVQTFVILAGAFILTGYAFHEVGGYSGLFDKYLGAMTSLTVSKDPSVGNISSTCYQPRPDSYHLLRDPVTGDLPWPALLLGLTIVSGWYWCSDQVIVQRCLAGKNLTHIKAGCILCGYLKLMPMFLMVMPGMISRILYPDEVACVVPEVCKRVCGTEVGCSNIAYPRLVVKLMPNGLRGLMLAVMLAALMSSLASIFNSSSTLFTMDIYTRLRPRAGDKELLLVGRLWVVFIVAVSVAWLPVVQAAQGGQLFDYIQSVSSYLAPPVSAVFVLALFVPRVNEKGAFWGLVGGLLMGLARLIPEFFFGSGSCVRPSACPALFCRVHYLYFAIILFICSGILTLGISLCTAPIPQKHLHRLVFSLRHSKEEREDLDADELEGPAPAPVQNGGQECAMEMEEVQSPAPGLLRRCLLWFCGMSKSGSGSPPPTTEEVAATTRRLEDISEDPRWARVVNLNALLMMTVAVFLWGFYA
Briefly: Methyl-α-D-[U-14C]Glucopyranoside uptake assay for SGLT-2 in CHO-K1 cells expressing mSGLT-2. The assay is classed as cell-based. To be noted: N.E. = Not Effective. Here is the method:
Preparation of Mouse SGLT-2 Expressing Cells
Full-length mouse SGLT-2 cDNA was amplified from C57BL/6J mouse kidneys and introduced in the pcDNA3.1(+) expression vector (Invitrogen, Inc.) and propagated in Escherichia coli strain DH5α using Luria-Bertani (LB) medium containing ampicillin. […] Stably transfected cells were selected using G418 antibiotic selection pressure.
Methyl-α-D-[U-^14C]Glucopyranoside Uptake Assay for SGLT-2
(§1) Cells expressing mSGLT-2 were seeded on 96-well tissue culture plates (Greiner, Inc.) in RPMI containing 10% FBS and 400 μg/mL G418 (0.8×10^5 cells per well in 200 μL medium) and incubated at 37° C. under 5% carbon dioxide for 24 h prior to the assay. Cells were washed twice with 200 μL of either sodium buffer (140 mM NaCl, 4.7 mM KCl, 2.2 mM CaCl2, 1.2 mM MgCl2, 10 mM Tris/Hepes, pH 7.4) or sodium-free buffer (137 mM N-methyl-glucamine, 4.7 mM KCl, 2.2 mM CaCl2, 1.2 mM MgCl2, 10 mM Tris/Hepes, pH 7.4). Reaction mixture containing test compounds at different concentrations diluted in assay buffer, 0.1 mM unlabeled Methyl-α-D-glucopyranoside and 1 μCi/well methyl-α-D[U-^14C]glucopyranoside (American Radiochemicals) was added per well of a 96-well plate and incubated at 37° C. for 1 h. Cells were washed thrice with 200 μL of wash buffer (140 mM NaCl, 4.7 mM KCl, 2.2 mM CaCl2, 1.2 mM MgCl2, 10 mM Tris/Hepes, pH 7.4 containing 500 μM phlorizin) and lysed using 50 μL of 0.25N NaOH. Methyl-α-D[U-^14C]glucopyranoside uptake was quantitated using a Top count scintillation counter (PerkinElmer, Inc.). All the test compounds were assayed in triplicates.

A further assay deals with T2, human SGLT-1 (Homo sapiens, UniProt P13866).
T2 construct: Full-length human SGLT-1 cDNA in the pCMV-XL-Neo expression vector was obtained from Origene Corporation
T2 sequence (P13866 1-664): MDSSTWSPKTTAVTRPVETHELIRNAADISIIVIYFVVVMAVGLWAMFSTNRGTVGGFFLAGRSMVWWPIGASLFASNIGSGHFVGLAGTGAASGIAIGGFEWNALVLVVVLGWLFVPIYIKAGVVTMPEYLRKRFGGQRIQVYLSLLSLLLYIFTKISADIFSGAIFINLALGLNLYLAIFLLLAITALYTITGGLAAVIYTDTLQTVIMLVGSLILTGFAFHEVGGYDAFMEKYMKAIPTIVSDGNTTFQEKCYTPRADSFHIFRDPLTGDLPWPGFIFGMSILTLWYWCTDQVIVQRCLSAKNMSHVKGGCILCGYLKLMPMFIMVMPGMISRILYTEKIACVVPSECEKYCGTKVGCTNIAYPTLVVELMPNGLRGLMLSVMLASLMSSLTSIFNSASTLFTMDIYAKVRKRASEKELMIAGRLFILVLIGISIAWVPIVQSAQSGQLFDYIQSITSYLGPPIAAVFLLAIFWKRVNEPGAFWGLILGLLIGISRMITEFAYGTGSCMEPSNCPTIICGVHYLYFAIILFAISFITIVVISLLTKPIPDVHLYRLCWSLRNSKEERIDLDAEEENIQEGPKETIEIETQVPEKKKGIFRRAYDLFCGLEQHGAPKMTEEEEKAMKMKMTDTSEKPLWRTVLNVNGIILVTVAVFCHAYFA
Put plainly: Methyl-α-D-[U-14C]Glucopyranoside uptake assay for SGLT-1 in CHO-K1 cells expressing hSGLT-1. The class given is cell-based. To be noted: N.E. = Not Effective. Here is the method: Preparation of Human SGLT-1 Expressing Cells
Full-length human SGLT-1 cDNA in the pCMV-XL-Neo expression vector was obtained from Origene Corporation and propagated in Escherichia coli strain DH5α using Luria-Bertani (LB) medium containing ampicillin. […] Stably transfected cells were selected using G418 antibiotic selection pressure.
Methyl-α-D-[U-^14C]Glucopyranoside Uptake Assay for SGLT-1
as §1, with “hSGLT-1” for “mSGLT-2”, “800 μg/ml” for “400 μg/mL”, “compounds” for “compounds at different concentrations”, “1” for “0.1”, “methyl-α-D-[U-^14C]glucopyranoside” for “methyl-α-D[U-^14C]glucopyranoside”, “Methyl-α-D-[U-^14C]glucopyranoside” for “Methyl-α-D[U-^14C]glucopyranoside”

`CCON=C(CC)c1ccc(Cc2cc([C@@H]3O[C@H](CO)[C@@H](O)[C@H](O)[C@H]3O)ccc2Cl)cc1` [Compound 17]: the “UGE in mice (in mg/g of feed consumed) at 3 mpk” value (shortened to “UGE in mice”) in the assay with C57BL/6J mice is on record as 64.5 mg/g of feed consumed.

Turning to “1-(4-(2-chloro-5-((1S,2S,3S,4R,5S)-2,3,4-trihydroxy-1-(hydroxymethyl)-6,8-dioxabicyclo[3.2.1]octan-5-yl)benzyl)phenyl)ethanone O-methyl oxime [Compound 4]”, the “UGE in mice” value in the assay with C57BL/6J mice is listed as 76.2 mg/g of feed consumed.

In the case of “1-(4-(2-chloro-5-((2S,3R,4R,5S,6R)-3,4,5-trihydroxy-6-(hydroxymethyl)tetrahydro-2H-pyran-2-yl)benzyl)phenyl)ethanone O-ethyl oxime [Compound 6]”, the “% inhibition of Methyl-α-D-[U-14C] Glucopyranoside uptake (CHO-K1 cells) mediated by SGLT-2” value (from here on “% inhibition … by SGLT-2”) came to 44.05% on mouse SGLT-2 (0.1 nM compound), 45.09% at mouse SGLT-2 (1 nM compound), 62.06% at mouse SGLT-2 (10 nM compound) and 89.78% at mouse SGLT-2 (100 nM compound). Further, the “% inhibition of Methyl-α-D-[U-14C] Glucopyranoside uptake (CHO-K1 cells) mediated by SGLT-1” value (shortened to “% inhibition … by SGLT-1”) on human SGLT-1 (100 nM compound) is on record as “N.E”; at human SGLT-1 (1 μM compound), 22.68%; at human SGLT-1 (10 μM compound) it was 60.02%. For the same compound, the “UGE in mice” value in the assay on C57BL/6J mice is recorded as 78.1 mg/g of feed consumed.

Take “1-(4-(2-chloro-5-((2S,3R,4R,5S,6S)-3,4,5-trihydroxy-6-methoxy tetrahydro-2H-pyran-2-yl)benzyl)phenyl)ethanone O-ethyl oxime [Compound 5]”: the “% inhibition … by SGLT-2” value at mouse SGLT-2 (0.1 nM compound) turned out to be 23.91%; at mouse SGLT-2 (1 nM compound), 45.81%; on mouse SGLT-2 (10 nM compound), 50.06%; on mouse SGLT-2 (100 nM compound), 91.98%. The “% inhibition … by SGLT-1” value was “N.E” at human SGLT-1 (100 nM compound), “N.E” at human SGLT-1 (1 μM compound) and 49.74% on human SGLT-1 (10 μM compound). Further, the “UGE in mice” value in the assay on C57BL/6J mice is 81.7 mg/g of feed consumed.

Consider “1-(4-(2-chloro-5-((1S,2S,3S,4R,5S)-2,3,4-trihydroxy-1-(hydroxymethyl)-6,8-dioxabicyclo[3.2.1]octan-5-yl)benzyl)phenyl)ethanone O-ethyl oxime [Compound 8]”, for which the “% inhibition … by SGLT-2” value is recorded as “N.E” at mouse SGLT-2 (0.1 nM compound), 25.35% on mouse SGLT-2 (1 nM compound), 72.44% at mouse SGLT-2 (10 nM compound) and 90.93% at mouse SGLT-2 (100 nM compound). In addition, the “% inhibition … by SGLT-1” value on human SGLT-1 (100 nM compound) is 20.63%; at human SGLT-1 (1 μM compound) it was 55.66%; on human SGLT-1 (10 μM compound), 88.57%. Further, the “UGE in mice” value in the assay on C57BL/6J mice is 60.6 mg/g of feed consumed.

Regarding “1-(4-(2-chloro-5-((2S,3R,4R,5S,6R)-3,4,5-trihydroxy-6-(hydroxymethyl)tetrahydro-2H-pyran-2-yl)benzyl)phenyl)-propan-1-one O-methyl oxime [Compound 7]”, the “% inhibition … by SGLT-2” value at mouse SGLT-2 (0.1 nM compound) worked out at 44.36%; on mouse SGLT-2 (1 nM compound), 48.64%; on mouse SGLT-2 (10 nM compound) it was 42.26%; at mouse SGLT-2 (100 nM compound), 74.40%. Also, the “% inhibition … by SGLT-1” value at human SGLT-1 (100 nM compound) is “N.E”; at human SGLT-1 (1 μM compound), “N.E”; on human SGLT-1 (10 μM compound), 56.97%. In addition, in the assay on C57BL/6J mice, the “UGE in mice” value is 78.4 mg/g of feed consumed.
